Laboratory results published in PubChem BioAssay (NCI).
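Dose response: 5 concentrations. Exposure: 48 h. Format: 96-well plates. Endpoint: linear interpolation; highest concentration if not reached. Here, GI50 denotes the concentration required for 50% inhibition of growth. TGI marks complete inhibition of growth.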

Columns and labels:
Test in all cases: NCI-60 cell line screen, 48 h
EKVX NSCLC = system: EKVX NSCLC
A549 NSCLC = system: A549 NSCLC
786-0 renal = system: 786-0 renal
NCI-H460 lung = system: NCI-H460 lung
RXF 393 renal = system: RXF 393 renal
SF-295 CNS = system: SF-295 CNS
OVCAR-3 ovarian = system: OVCAR-3 ovarian
SN12C renal = system: SN12C renal
LOX IMVI melanoma = system: LOX IMVI melanoma
SNB-19 CNS = system: SNB-19 CNS
NCI-H226 lung = system: NCI-H226 lung
SK-MEL-5 melanoma = system: SK-MEL-5 melanoma
OVCAR-4 ovarian = system: OVCAR-4 ovarian
HL-60(TB) leukemia = system: HL-60(TB) leukemia
SNB-75 CNS = system: SNB-75 CNS
CAKI-1 renal = system: CAKI-1 renal
BT-549 breast = system: BT-549 breast
IGROV1 ovarian = system: IGROV1 ovarian
HOP-62 NSCLC = system: HOP-62 NSCLC
KM12 colon = system: KM12 colon
SF-539 CNS = system: SF-539 CNS
T-47D breast = system: T-47D breast
NCI/ADR-RES ovarian = system: NCI/ADR-RES ovarian
CCRF-CEM leukemia = system: CCRF-CEM leukemia
K-562 leukemia = system: K-562 leukemia
U251 CNS = system: U251 CNS
UACC-257 melanoma = system: UACC-257 melanoma
UACC-62 melanoma = system: UACC-62 melanoma
NCI-H522 lung = system: NCI-H522 lung
COLO 205 colon = system: COLO 205 colon
SK-MEL-28 melanoma = system: SK-MEL-28 melanoma
A498 renal = system: A498 renal
OVCAR-8 ovarian = system: OVCAR-8 ovarian
SF-268 CNS = system: SF-268 CNS
NCI-H23 lung = system: NCI-H23 lung
MDA-MB-231 breast = system: MDA-MB-231 breast
HT29 colon = system: HT29 colon
M14 melanoma = system: M14 melanoma
SK-MEL-2 melanoma = system: SK-MEL-2 melanoma
OVCAR-5 ovarian = system: OVCAR-5 ovarian
TK-10 renal = system: TK-10 renal
DU-145 prostate = system: DU-145 prostate
HCC-2998 colon = system: HCC-2998 colon
ACHN renal = system: ACHN renal
SK-OV-3 ovarian = system: SK-OV-3 ovarian
MOLT-4 leukemia = system: MOLT-4 leukemia
MDA-MB-435 = system: MDA-MB-435
HOP-92 NSCLC = system: HOP-92 NSCLC
SW-620 colon = system: SW-620 colon
HCT-15 colon = system: HCT-15 colon
HCT-116 colon = system: HCT-116 colon
RPMI-8226 leukemia = system: RPMI-8226 leukemia
MALME-3M melanoma = system: MALME-3M melanoma
HS 578T breast = system: HS 578T breast
MCF7 breast = system: MCF7 breast
PC-3 prostate = system: PC-3 prostate
UO-31 renal = system: UO-31 renal

O=C1c2ccccc2-c2c1c1ccc([N+](=O)[O-])cc1c(=O)n2CCCn1ccnc1
GI50 (EKVX NSCLC): 6160 nM | TGI (EKVX NSCLC): > 21800 nM | GI50 (A549 NSCLC): 3170 nM | TGI (A549 NSCLC): 21900 nM | GI50 (786-0 renal): 218 nM | TGI (786-0 renal): 894 nM | GI50 (NCI-H460 lung): < 27.5 nM | TGI (NCI-H460 lung): 7980 nM | GI50 (RXF 393 renal): 160 nM | TGI (RXF 393 renal): 2430 nM | GI50 (SF-295 CNS): 306 nM | TGI (SF-295 CNS): 2290 nM | GI50 (OVCAR-3 ovarian): 334 nM | TGI (OVCAR-3 ovarian): 2120 nM | GI50 (SN12C renal): 15.3 nM | TGI (SN12C renal): 37.8 nM | GI50 (LOX IMVI melanoma): 152 nM | TGI (LOX IMVI melanoma): 330 nM | GI50 (SNB-19 CNS): 358 nM | TGI (SNB-19 CNS): > 34400 nM | GI50 (NCI-H226 lung): 18.3 nM | TGI (NCI-H226 lung): 63.7 nM | GI50 (SK-MEL-5 melanoma): < 19 nM | TGI (SK-MEL-5 melanoma): 104 nM | GI50 (OVCAR-4 ovarian): 943 nM | TGI (OVCAR-4 ovarian): 13200 nM | GI50 (HL-60(TB) leukemia): 1090 nM | TGI (HL-60(TB) leukemia): 3840 nM | TGI (SNB-75 CNS): 862 nM | GI50 (CAKI-1 renal): 172 nM | TGI (CAKI-1 renal): 807 nM | GI50 (BT-549 breast): 35.9 nM | TGI (BT-549 breast): 960 nM | GI50 (IGROV1 ovarian): 696 nM | TGI (IGROV1 ovarian): 2710 nM | GI50 (HOP-62 NSCLC): 173 nM | TGI (HOP-62 NSCLC): 708 nM | GI50 (KM12 colon): 22.7 nM | TGI (KM12 colon): 1250 nM | GI50 (SF-539 CNS): 14.9 nM | TGI (SF-539 CNS): 83.8 nM | TGI (T-47D breast): > 33300 nM | GI50 (NCI/ADR-RES ovarian): 46.5 nM | TGI (NCI/ADR-RES ovarian): 366 nM | TGI (CCRF-CEM leukemia): 785 nM | GI50 (K-562 leukemia): 886 nM | TGI (K-562 leukemia): 5160 nM | GI50 (U251 CNS): 157 nM | TGI (U251 CNS): 690 nM | GI50 (UACC-257 melanoma): 379 nM | TGI (UACC-257 melanoma): 1830 nM | GI50 (UACC-62 melanoma): 11.6 nM | TGI (UACC-62 melanoma): 34.8 nM | GI50 (NCI-H522 lung): 1080 nM | TGI (NCI-H522 lung): 5680 nM | GI50 (COLO 205 colon): 4570 nM | TGI (COLO 205 colon): > 38500 nM | GI50 (SK-MEL-28 melanoma): 352 nM | TGI (SK-MEL-28 melanoma): 10800 nM | GI50 (A498 renal): 525 nM | TGI (A498 renal): 8880 nM | GI50 (OVCAR-8 ovarian): 118 nM | TGI (OVCAR-8 ovarian): 4780 nM | TGI (SF-268 CNS): 15100 nM | GI50 (NCI-H23 lung): 119 nM | TGI (NCI-H23 lung): 292 nM | GI50 (MDA-MB-231 breast): 150 nM | TGI (MDA-MB-231 breast): 408 nM | GI50 (HT29 colon): < 41.8 nM | TGI (HT29 colon): 10900 nM | GI50 (M14 melanoma): 106 nM | TGI (M14 melanoma): 453 nM | GI50 (SK-MEL-2 melanoma): 1060 nM | TGI (SK-MEL-2 melanoma): 3270 nM | GI50 (OVCAR-5 ovarian): 984 nM | TGI (OVCAR-5 ovarian): 4250 nM | GI50 (TK-10 renal): 1160 nM | TGI (TK-10 renal): 9310 nM | GI50 (DU-145 prostate): < 15.2 nM | TGI (DU-145 prostate): 54.2 nM | GI50 (HCC-2998 colon): 2000 nM | TGI (HCC-2998 colon): 5570 nM | TGI (ACHN renal): 704 nM | GI50 (SK-OV-3 ovarian): 9630 nM | TGI (SK-OV-3 ovarian): > 39500 nM | GI50 (MOLT-4 leukemia): 2120 nM | TGI (MOLT-4 leukemia): 4640 nM | GI50 (MDA-MB-435): 1550 nM | TGI (MDA-MB-435): 5980 nM | GI50 (HOP-92 NSCLC): 2180 nM | TGI (HOP-92 NSCLC): 29900 nM | TGI (SW-620 colon): 529 nM | GI50 (HCT-15 colon): 1060 nM | TGI (HCT-15 colon): 3150 nM | GI50 (HCT-116 colon): 76.3 nM | TGI (HCT-116 colon): 652 nM | GI50 (RPMI-8226 leukemia): 15.3 nM | TGI (RPMI-8226 leukemia): 65.3 nM | GI50 (MALME-3M melanoma): 148 nM | TGI (MALME-3M melanoma): 1970 nM | GI50 (HS 578T breast): 605 nM | TGI (HS 578T breast): 10200 nM | GI50 (MCF7 breast): < 18 nM | TGI (MCF7 breast): 4240 nM | GI50 (PC-3 prostate): 832 nM | TGI (PC-3 prostate): 14300 nM | GI50 (UO-31 renal): 724 nM | TGI (UO-31 renal): 2620 nM
